Legend:
Type in all cases: functional
[1] = system: DU-145; test: Growth inhibition of human DU145 cells assessed as cell growth at 10^-8 M incubated for 48 hrs by sulforhodamine B assay relative to control; details: DU-145, 48 h, read-out: Activity
[2] = system: MDA-MB-231; test: Growth inhibition of human MDA-MB-231 cells assessed as cell growth at 10^-5 M incubated for 48 hrs by sulforhodamine B assay relative to control; details: MDA-MB-231, 48 h, read-out: Activity
[3] = system: SF-539; test: Growth inhibition of human SF539 cells assessed as cell growth at 10^-7 M incubated for 48 hrs by sulforhodamine B assay relative to control; details: SF-539, 48 h, read-out: Activity
[4] = system: A549; test: Growth inhibition of human A549/ATCC cells assessed as cell growth at 10^-7 M incubated for 48 hrs by sulforhodamine B assay relative to control; details: A549, 48 h, read-out: Activity
[5] = system: U-251; test: Growth inhibition of human U251 cells assessed as cell growth at 10^-7 M incubated for 48 hrs by sulforhodamine B assay relative to control; details: U-251, 48 h, read-out: Activity
[6] = system: SNB-19; test: Growth inhibition of human SNB19 cells assessed as cell growth at 10^-6 M incubated for 48 hrs by sulforhodamine B assay relative to control; details: SNB-19, 48 h, read-out: Activity
[7] = system: HCT-15; test: Growth inhibition of human HCT15 cells assessed as cell growth at 10^-7 M incubated for 48 hrs by sulforhodamine B assay relative to control; details: HCT-15, 48 h, read-out: Activity
[8] = system: SF-268; test: Growth inhibition of human SF268 cells assessed as cell growth at 10^-4 M incubated for 48 hrs by sulforhodamine B assay relative to control; details: SF-268, 48 h, read-out: Activity
[9] = system: 786-0; test: Growth inhibition of human 786-0 cells assessed as cell growth at 10^-8 M incubated for 48 hrs by sulforhodamine B assay relative to control; details: 786-0, 48 h, read-out: Activity
[10] = system: MOLT-4; test: Growth inhibition of human MOLT4 cells incubated for 48 hrs by sulforhodamine B assay; details: MOLT-4, 48 h
[11] = system: OVCAR-3; test: Growth inhibition of human OVCAR3 cells incubated for 48 hrs by sulforhodamine B assay; details: OVCAR-3, 48 h
[12] = system: OVCAR-5; test: Growth inhibition of human OVCAR5 cells assessed as cell growth at 10^-5 M incubated for 48 hrs by sulforhodamine B assay relative to control; details: OVCAR-5, 48 h, read-out: Activity
[13] = system: HOP-62; test: Growth inhibition of human HOP62 cells incubated for 48 hrs by sulforhodamine B assay; details: HOP-62, 48 h
[14] = system: NCI/ADR-RES; test: Growth inhibition of human NCI/ADR-RES cells assessed as cell growth at 10^-4 M incubated for 48 hrs by sulforhodamine B assay relative to control; details: read-out: Activity
[15] = system: NCI-H522; test: Growth inhibition of human NCI-H522 cells assessed as cell growth at 10^-5 M incubated for 48 hrs by sulforhodamine B assay relative to control; details: NCI-H522, 48 h, read-out: Activity
[16] = system: UACC-257; test: Growth inhibition of human UACC257 cells assessed as cell growth at 10^-7 M incubated for 48 hrs by sulforhodamine B assay relative to control; details: UACC-257, 48 h, read-out: Activity
[17] = system: COLO 205; test: Growth inhibition of human COLO205 cells assessed as cell growth at 10^-8 M incubated for 48 hrs by sulforhodamine B assay relative to control; details: COLO 205, 48 h, read-out: Activity
[18] = system: HCC 2998; test: Growth inhibition of human HCC2998 cells assessed as cell growth at 10^-4 M incubated for 48 hrs by sulforhodamine B assay relative to control; details: HCC 2998, 48 h, read-out: Activity
[19] = system: MDA-MB-435; test: Growth inhibition of human MDA-MB-435 cells assessed as cell growth at 10^-4 M incubated for 48 hrs by sulforhodamine B assay relative to control; details: MDA-MB-435, 48 h, read-out: Activity
[20] = system: A549; test: Growth inhibition of human A549/ATCC cells assessed as cell growth at 10^-8 M incubated for 48 hrs by sulforhodamine B assay relative to control; details: A549, 48 h, read-out: Activity
[21] = system: SF-268; test: Growth inhibition of human SF268 cells assessed as cell growth at 10^-8 M incubated for 48 hrs by sulforhodamine B assay relative to control; details: SF-268, 48 h, read-out: Activity
[22] = system: HCT-116; test: Growth inhibition of human HCT116 cells assessed as cell growth at 10^-8 M incubated for 48 hrs by sulforhodamine B assay relative to control; details: HCT-116, 48 h, read-out: Activity
[23] = system: MOLT-4; test: Growth inhibition of human MOLT4 cells assessed as cell growth at 10^-6 M incubated for 48 hrs by sulforhodamine B assay relative to control; details: MOLT-4, 48 h, read-out: Activity
[24] = system: UACC-257; test: Growth inhibition of human UACC257 cells assessed as cell growth at 10^-5 M incubated for 48 hrs by sulforhodamine B assay relative to control; details: UACC-257, 48 h, read-out: Activity
[25] = system: SK-MEL-5; test: Growth inhibition of human SK-MEL-5 cells assessed as cell growth at 10^-5 M incubated for 48 hrs by sulforhodamine B assay relative to control; details: SK-MEL-5, 48 h, read-out: Activity
[26] = system: HT-29; test: Growth inhibition of human HT-29 cells assessed as cell growth at 10^-7 M incubated for 48 hrs by sulforhodamine B assay relative to control; details: HT-29, 48 h, read-out: Activity
[27] = system: K562; test: Growth inhibition of human K562 cells assessed as cell growth at 10^-7 M incubated for 48 hrs by sulforhodamine B assay relative to control; details: K562, 48 h, read-out: Activity
[28] = system: MDA-MB-435; test: Induction of apoptosis in human MDA-MB-435 cells assessed as live cells by propidium iodide/Annexin V staining based flow cytometry (reference value: 97.4%)
[29] = system: M14; test: Growth inhibition of human M14 cells incubated for 48 hrs by sulforhodamine B assay; details: M14, 48 h
[30] = system: CAKI-1; test: Growth inhibition of human Caki1 cells assessed as cell growth at 10^-7 M incubated for 48 hrs by sulforhodamine B assay relative to control; details: CAKI-1, 48 h, read-out: Activity
[31] = read-out: LC50 (the source's name)
[32] = read-out: pLC50 (the source's name) (converted)

CCS/C(Nc1ccccc1)=C(\C#N)C(=O)N/N=C\c1ccc(Cl)cc1Cl
growth at 0.01 µM [1]: 105%
growth at 10 µM [2]: 32%
growth at 0.1 µM [3]: 94%
growth at 0.1 µM [4]: 92%
growth at 0.1 µM [5]: 98%
growth at 1 µM [6]: 86%
growth at 0.1 µM [7]: 87%
growth at 100 µM [8]: 27%
growth at 0.01 µM [9]: 95%
GI50 ([10]; read-out: GI50): 3.48 µM
CC50 [10, 31]: > 100 µM
TGI ([10]; read-out: TGI): > 100 µM
GI50 ([10]; read-out: pGI50 (converted)): 3.47 µM
CC50 [10, 32]: > 100 µM
TGI ([10]; read-out: pTGI): > 100 µM
GI50 ([11]; read-out: GI50): 2.8 µM
CC50 [11, 31]: > 100 µM
TGI ([11]; read-out: TGI): 10.8 µM
GI50 ([11]; read-out: pGI50 (converted)): 2.82 µM
CC50 [11, 32]: > 100 µM
TGI ([11]; read-out: pTGI (converted)): 10.7 µM
growth at 10 µM [12]: 45%
GI50 ([13]; read-out: GI50): 3.66 µM
CC50 [13, 31]: > 100 µM
TGI ([13]; read-out: TGI): > 100 µM
GI50 ([13]; read-out: pGI50 (converted)): 3.63 µM
CC50 [13, 32]: > 100 µM
TGI ([13]; read-out: pTGI): > 100 µM
growth at 100 µM [14]: 11%
growth at 10 µM [15]: -2%
growth at 0.1 µM [16]: 94%
growth at 0.01 µM [17]: 101%
growth at 100 µM [18]: 35%
growth at 100 µM [19]: -52%
growth at 0.01 µM [20]: 97%
growth at 0.01 µM [21]: 94%
growth at 0.01 µM [22]: 96%
growth at 1 µM [23]: 84%
growth at 10 µM [24]: 61%
growth at 10 µM [25]: -6%
growth at 0.1 µM [26]: 101%
growth at 0.1 µM [27]: 90%
Activity [28]: 91.29%
GI50 ([29]; read-out: GI50): 2.01 µM
CC50 [29, 31]: > 100 µM
TGI ([29]; read-out: TGI): 9.61 µM
GI50 ([29]; read-out: pGI50 (converted)): 2 µM
CC50 [29, 32]: > 100 µM
TGI ([29]; read-out: pTGI (converted)): 9.55 µM
growth at 0.1 µM [30]: 84%

CCS/C(Nc1ccccc1)=C(\C#N)C(=O)Nc1ccc(OC)cc1
growth at 0.01 µM [1]: 101%
growth at 10 µM [2]: 23%
growth at 0.1 µM [3]: 92%
growth at 0.1 µM [4]: 94%
growth at 0.1 µM [5]: 98%
growth at 1 µM [6]: 84%
growth at 0.1 µM [7]: 88%
growth at 100 µM [8]: 11%
growth at 0.01 µM [9]: 97%
GI50 ([10]; read-out: GI50): 2.61 µM
CC50 [10, 31]: > 100 µM
TGI ([10]; read-out: TGI): > 100 µM
GI50 ([10]; read-out: pGI50 (converted)): 2.63 µM
CC50 [10, 32]: > 100 µM
TGI ([10]; read-out: pTGI): > 100 µM
GI50 ([11]; read-out: GI50): 2.61 µM
CC50 [11, 31]: > 100 µM
TGI ([11]; read-out: TGI): 8.59 µM
GI50 ([11]; read-out: pGI50 (converted)): 2.63 µM
CC50 [11, 32]: > 100 µM
TGI ([11]; read-out: pTGI (converted)): 8.51 µM
growth at 10 µM [12]: 33%
GI50 ([13]; read-out: GI50): 5.62 µM
CC50 [13, 31]: > 100 µM
TGI ([13]; read-out: TGI): > 100 µM
GI50 ([13]; read-out: pGI50 (converted)): 5.62 µM
CC50 [13, 32]: > 100 µM
TGI ([13]; read-out: pTGI): > 100 µM
growth at 100 µM [14]: 10%
growth at 10 µM [15]: -1%
growth at 0.1 µM [16]: 95%
growth at 0.01 µM [17]: 111%
growth at 100 µM [18]: 7%
growth at 100 µM [19]: -35%
growth at 0.01 µM [20]: 95%
growth at 0.01 µM [21]: 101%
growth at 0.01 µM [22]: 100%
growth at 1 µM [23]: 71%
growth at 10 µM [24]: 56%
growth at 10 µM [25]: -8%
growth at 0.1 µM [26]: 105%
growth at 0.1 µM [27]: 88%
Activity [28]: 85.55%
GI50 ([29]; read-out: GI50): 2.27 µM
CC50 [29, 31]: > 100 µM
TGI ([29]; read-out: TGI): 87.4 µM
GI50 ([29]; read-out: pGI50 (converted)): 2.29 µM
CC50 [29, 32]: > 100 µM
TGI ([29]; read-out: pTGI (converted)): 87.1 µM
growth at 0.1 µM [30]: 85%
